Measurements: the supplement of paper PMC10307832

Legend:
Assay in all cases: relative viability (nuclei count vs DMSO), 5 days (fraction); higher = more cells survive
A-427 = test system: A-427
Procedure, shortened: (§1)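 Relative viability is defined as nuclei in treated wells over nuclei in vehicle wells. Duplicate plates were run and medians reported. Lung cancer cell lines in 1536-well plates were dosed by pin tool one day after seeding, with one drug or with a fixed anchor-drug dose plus five library-drug doses (not always all listed) in √10 steps, and nuclei were counted after 5 days.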

CAL-12T = test system: CAL-12T
Procedure, shortened: as §1

Calu-6 = test system: Calu-6
Procedure, shortened: as §1

EBC-1 = test system: EBC-1
Procedure, shortened: as §1

IA-LM = test system: IA-LM
Procedure, shortened: as §1

NCI-H1299 = test system: NCI-H1299
Procedure, shortened: as §1

NCI-H1651 = test system: NCI-H1651
Procedure, shortened: as §1

NCI-H1703 = test system: NCI-H1703
Procedure, shortened: as §1

NCI-H1755 = test system: NCI-H1755
Procedure, shortened: as §1

**Q.** What does the source list for `Nc1cccc2c1CN(C1CCC(=O)NC1=O)C2=O` (stereo unspecified) [Lenalidomide] + CC(C)C[C@H](NC(=O)[C@H](Cc1ccccc1)NC(=O)c1cnccn1)B(O)O [Bortezomib] (partner 0.002 µM)?
**A.** relative viability (A-427; first compound 0.253 µM): 1.08; relative viability (A-427; first compound 2.53 µM): 0.951; relative viability (A-427; first compound 8 µM): 0.908; relative viability (CAL-12T; first compound 0.253 µM): 0.988; relative viability (CAL-12T; first compound 2.53 µM): 1.14; relative viability (CAL-12T; first compound 8 µM): 0.965; relative viability (Calu-6; first compound 0.253 µM): 1.04; relative viability (Calu-6; first compound 0.8 µM): 1.01; relative viability (Calu-6; first compound 2.53 µM): 0.997; relative viability (Calu-6; first compound 8 µM): 1.06; relative viability (EBC-1; first compound 0.253 µM): 0.653; relative viability (EBC-1; first compound 0.8 µM): 0.589; relative viability (EBC-1; first compound 2.53 µM): 0.684; relative viability (EBC-1; first compound 8 µM): 0.564; relative viability (IA-LM; first compound 0.253 µM): 0.946; relative viability (IA-LM; first compound 0.8 µM): 0.753; relative viability (IA-LM; first compound 2.53 µM): 0.884; relative viability (IA-LM; first compound 8 µM): 0.764; relative viability (NCI-H1299; first compound 0.253 µM): 1.03; relative viability (NCI-H1299; first compound 0.8 µM): 1.01; relative viability (NCI-H1299; first compound 2.53 µM): 1.06; relative viability (NCI-H1299; first compound 8 µM): 1.06; relative viability (NCI-H1651; first compound 0.253 µM): 0.923; relative viability (NCI-H1651; first compound 0.8 µM): 0.728; relative viability (NCI-H1651; first compound 2.53 µM): 1.05; relative viability (NCI-H1651; first compound 8 µM): 0.772; relative viability (NCI-H1703; first compound 0.253 µM): 0.231; relative viability (NCI-H1703; first compound 0.8 µM): 0.399; relative viability (NCI-H1703; first compound 2.53 µM): 0.328; relative viability (NCI-H1703; first compound 8 µM): 0.47; relative viability (NCI-H1755; first compound 0.253 µM): 0.855; relative viability (NCI-H1755; first compound 0.8 µM): 0.854; relative viability (NCI-H1755; first compound 2.53 µM): 0.947; relative viability (NCI-H1755; first compound 8 µM): 0.913

**Q.** Which results are given for `CN1CCN(CCOc2cc(OC3CCOCC3)c3c(Nc4c(Cl)ccc5c4OCO5)ncnc3c2)CC1` [Saracatinib] + CC(C)C[C@H](NC(=O)[C@H](Cc1ccccc1)NC(=O)c1cnccn1)B(O)O [Bortezomib] (partner 0.002 µM)?
**A.** relative viability (A-427; first compound 0.02 µM): 1.03; relative viability (A-427; first compound 0.2 µM): 0.804; relative viability (A-427; first compound 0.6325 µM): 0.871; relative viability (A-427; first compound 2 µM): 0.981; relative viability (CAL-12T; first compound 0.02 µM): 0.944; relative viability (CAL-12T; first compound 0.2 µM): 0.949; relative viability (CAL-12T; first compound 0.6325 µM): 1.24; relative viability (CAL-12T; first compound 2 µM): 0.639; relative viability (Calu-6; first compound 0.02 µM): 0.939; relative viability (Calu-6; first compound 0.2 µM): 0.796; relative viability (Calu-6; first compound 0.6325 µM): 0.807; relative viability (Calu-6; first compound 2 µM): 0.656; relative viability (EBC-1; first compound 0.02 µM): 0.553; relative viability (EBC-1; first compound 0.2 µM): 0.484; relative viability (EBC-1; first compound 0.6325 µM): 0.628; relative viability (EBC-1; first compound 2 µM): 0.531; relative viability (IA-LM; first compound 0.02 µM): 0.87; relative viability (IA-LM; first compound 0.6325 µM): 1.31; relative viability (IA-LM; first compound 2 µM): 0.909; relative viability (NCI-H1299; first compound 0.02 µM): 1.05; relative viability (NCI-H1299; first compound 0.2 µM): 1.03; relative viability (NCI-H1299; first compound 0.6325 µM): 1.01; relative viability (NCI-H1299; first compound 2 µM): 1.09; relative viability (NCI-H1651; first compound 0.02 µM): 0.962; relative viability (NCI-H1651; first compound 0.2 µM): 0.775; relative viability (NCI-H1651; first compound 0.6325 µM): 1; relative viability (NCI-H1651; first compound 2 µM): 0.844; relative viability (NCI-H1703; first compound 0.02 µM): 0.304; relative viability (NCI-H1703; first compound 0.2 µM): 0.314; relative viability (NCI-H1703; first compound 0.6325 µM): 0.293; relative viability (NCI-H1703; first compound 2 µM): 0.22; relative viability (NCI-H1755; first compound 0.02 µM): 1.02; relative viability (NCI-H1755; first compound 0.2 µM): 0.792; relative viability (NCI-H1755; first compound 0.6325 µM): 1.08; relative viability (NCI-H1755; first compound 2 µM): 0.83

**Q.** How did the relative viability (A-427; first compound 0.001 µM) turn out when `Cc1cn(-c2cc(NC(=O)c3ccc(C)c(Nc4nccc(-c5cccnc5)n4)c3)cc(C(F)(F)F)c2)cn1` [Nilotinib] + CC(C)C[C@H](NC(=O)[C@H](Cc1ccccc1)NC(=O)c1cnccn1)B(O)O [Bortezomib] (partner 0.002 µM) was run?
**A.** 0.928

**Q.** And the relative viability (A-427; first compound 0.01 µM)?
**A.** 0.95

**Q.** And the relative viability (A-427; first compound 0.03162 µM)?
**A.** 1.02

**Q.** What about the relative viability (A-427; first compound 0.1 µM) of the same molecule?
**A.** 0.536

**Q.** And the relative viability (CAL-12T; first compound 0.001 µM)?
**A.** 0.968

**Q.** And the relative viability (CAL-12T; first compound 0.01 µM)?
**A.** 0.919

**Q.** What about the relative viability (CAL-12T; first compound 0.03162 µM) of the same molecule?
**A.** 0.807

**Q.** And the relative viability (CAL-12T; first compound 0.1 µM)?
**A.** 1.19

**Q.** What about the relative viability (Calu-6; first compound 0.001 µM) of the same molecule?
**A.** 0.934

**Q.** And the relative viability (Calu-6; first compound 0.003162 µM)?
**A.** 1.02

**Q.** And the relative viability (Calu-6; first compound 0.01 µM)?
**A.** 0.929

**Q.** What about the relative viability (Calu-6; first compound 0.03162 µM) of the same molecule?
**A.** 1.02

**Q.** What about the relative viability (Calu-6; first compound 0.1 µM) of the same molecule?
**A.** 1.01

**Q.** And the relative viability (EBC-1; first compound 0.001 µM)?
**A.** 0.488

**Q.** And the relative viability (EBC-1; first compound 0.003162 µM)?
**A.** 0.55

**Q.** What about the relative viability (EBC-1; first compound 0.01 µM) of the same molecule?
**A.** 0.417

**Q.** And the relative viability (EBC-1; first compound 0.03162 µM)?
**A.** 0.437

**Q.** What about the relative viability (EBC-1; first compound 0.1 µM) of the same molecule?
**A.** 0.241

**Q.** What about the relative viability (IA-LM; first compound 0.001 µM) of the same molecule?
**A.** 0.616

**Q.** What about the relative viability (IA-LM; first compound 0.003162 µM) of the same molecule?
**A.** 0.698

**Q.** And the relative viability (IA-LM; first compound 0.01 µM)?
**A.** 0.685

**Q.** What about the relative viability (IA-LM; first compound 0.03162 µM) of the same molecule?
**A.** 0.808

**Q.** And the relative viability (IA-LM; first compound 0.1 µM)?
**A.** 0.714

**Q.** What about the relative viability (NCI-H1299; first compound 0.003162 µM) of the same molecule?
**A.** 1.07

**Q.** What about the relative viability (NCI-H1299; first compound 0.01 µM) of the same molecule?
**A.** 1.05

**Q.** What about the relative viability (NCI-H1299; first compound 0.03162 µM) of the same molecule?
**A.** 1.01

**Q.** What about the relative viability (NCI-H1299; first compound 0.1 µM) of the same molecule?
**A.** 0.933

**Q.** And the relative viability (NCI-H1651; first compound 0.001 µM)?
**A.** 0.917

**Q.** And the relative viability (NCI-H1651; first compound 0.003162 µM)?
**A.** 1.05

**Q.** What about the relative viability (NCI-H1651; first compound 0.01 µM) of the same molecule?
**A.** 1.07

**Q.** And the relative viability (NCI-H1651; first compound 0.03162 µM)?
**A.** 0.956

**Q.** And the relative viability (NCI-H1651; first compound 0.1 µM)?
**A.** 0.653

**Q.** And the relative viability (NCI-H1703; first compound 0.001 µM)?
**A.** 0.232

**Q.** And the relative viability (NCI-H1703; first compound 0.003162 µM)?
**A.** 0.208

**Q.** What about the relative viability (NCI-H1703; first compound 0.01 µM) of the same molecule?
**A.** 0.148

**Q.** And the relative viability (NCI-H1703; first compound 0.03162 µM)?
**A.** 0.141

**Q.** What about the relative viability (NCI-H1703; first compound 0.1 µM) of the same molecule?
**A.** 0.125

**Q.** What about the relative viability (NCI-H1755; first compound 0.001 µM) of the same molecule?
**A.** 1

**Q.** What about the relative viability (NCI-H1755; first compound 0.003162 µM) of the same molecule?
**A.** 1.16

**Q.** And the relative viability (NCI-H1755; first compound 0.01 µM)?
**A.** 1.15

**Q.** What about the relative viability (NCI-H1755; first compound 0.03162 µM) of the same molecule?
**A.** 0.81

**Q.** And the relative viability (NCI-H1755; first compound 0.1 µM)?
**A.** 0.929
